Assay results taken from patent US6472158B1, “Ustilipides, method for the production and the use thereof” (Aventis Pharma Deutschland GmbH, priority 1998, dated 2002).

Key:
Dopamine D3 receptor = target: T1, Dopamine D3 receptor (Homo sapiens, UniProt P35462); test: Dopamine D3 receptor binding assay ([N-methyl-3H]spiroperidol, CHO membranes); conditions: human D3 receptor in CHO membranes, room temperature, 60 minutes
T1 construct: expressed in transfected cells
Description: (§1) The ustilipides effectively antagonize dopamine D2 and D3 receptors. One measure of their activity is the IC50 which indicates the concentration of inhibitor at which the rate of the normal enzymatic reaction (or receptor antagonism) is reduced by 50%.
(§2) The D3 and D2 long genes were isolated from a human cDNA library and stably transfected into CHO cells (CHO=Chinese hamster ovary). Membrane fractions are obtained from single clones with high-level expression. The binding assay is carried out in 96-well plates at room temperature for 60 minutes. The reaction mixture contains 50 μl of [N-methyl-^3H]spiroperidol, 50 μl of test substance or S(−)-eticlopride made for nonspecific binding and 100 μl of membrane. The assay is stopped by rapid filtration through a GF/B filter into a Skatron 96 cell harvester. The filters are cut up and placed in containers (T trays, Wallac), and the radioactivity is determined in a scintillation counter.
(§3) The specific binding is defined as the difference between the total binding and the binding in the presence of 10 μM S(−)-eticlopride. The total binding corresponds approximately to 10% of the counts of the ligands employed in total.
(§4) The inhibition of the binding by a test substance is calculated by correlation with the control reaction. Analysis of the data took place using the LIGAND software package of McPherson, Munson & Rodbard, Elsevier-BIOSOFT.

[1] = target: T2, Dopamine D2 receptor (D2 long) (Homo sapiens, UniProt P14416); test: Dopamine D2 receptor binding assay ([N-methyl-3H]spiroperidol, CHO membranes); conditions: human D2 long receptor in CHO membranes, room temperature, 60 minutes
T2 construct: expressed in transfected cells
Description: as §1, §2, §3, §4

[2] = Physicochemical properties (solubility, stability); conditions: for solubility: alcohols and other organic solvents
Text: The physicochemical and spectroscopic properties of the ustilipides can be summarized as follows: […]

human erythrocytes = test: In vitro hemolysis; type: cell-based
Description: On use of the schizonellins, a fatal 100% hemolysis occurs at concentrations as low as 10 and 30 μg/ml respectively. Determination of the hemolytic effect of ustilipides A, B and C gave the following results, the hemolysis being measured by the percentage of ruptured cells.
The hemolysis experiments were carried out with human erythrocytes.
Venous blood freshly taken from humans, rhesus monkeys or beagle dogs is used to measure the hemolytic activity. The blood is collected in heparinized tubes and distributed in aliquots of 200 μl to 12 polyethylene tubes. One aliquot is mixed with 200 μl of distilled water and serves as 100% standard, and another is mixed with 200 μl of physiological saline (0.9% NaCl) (0% standard). 200 μl portions of substance dilutions in physiological saline to […] are distributed to the other tubes. All the tubes are cautiously agitated and then incubated at 37° C. for 3 hours. The 100% standard is then made up with 5 ml of distilled water, and the other tubes are each made up with 5 ml of physiological saline, and are centrifuged at 700 g for 5 minutes.
The hemolysis is determined by measuring the absorption of the supernatant in a spectrophotometer at a wavelength of 540 nm. The absorption of the standard with complete hemolysis is set at 100%. The absorption of the test product dilutions and of the 0% standard are measured and stated as a percentage of the maximum inducible hemolysis.

[3] = neutral and weakly acidic medium

T1 sequence (P35462 whole entry): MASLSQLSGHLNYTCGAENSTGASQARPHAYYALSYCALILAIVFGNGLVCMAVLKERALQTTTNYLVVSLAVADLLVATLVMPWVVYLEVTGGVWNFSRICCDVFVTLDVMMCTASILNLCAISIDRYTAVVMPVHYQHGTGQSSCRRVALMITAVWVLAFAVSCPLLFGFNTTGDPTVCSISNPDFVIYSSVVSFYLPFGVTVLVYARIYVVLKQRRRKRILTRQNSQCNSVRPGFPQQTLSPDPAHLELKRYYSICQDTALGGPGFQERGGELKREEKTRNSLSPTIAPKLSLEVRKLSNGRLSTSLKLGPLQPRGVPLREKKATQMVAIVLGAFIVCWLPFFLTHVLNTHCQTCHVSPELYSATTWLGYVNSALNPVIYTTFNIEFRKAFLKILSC
T2 sequence (P14416 whole entry): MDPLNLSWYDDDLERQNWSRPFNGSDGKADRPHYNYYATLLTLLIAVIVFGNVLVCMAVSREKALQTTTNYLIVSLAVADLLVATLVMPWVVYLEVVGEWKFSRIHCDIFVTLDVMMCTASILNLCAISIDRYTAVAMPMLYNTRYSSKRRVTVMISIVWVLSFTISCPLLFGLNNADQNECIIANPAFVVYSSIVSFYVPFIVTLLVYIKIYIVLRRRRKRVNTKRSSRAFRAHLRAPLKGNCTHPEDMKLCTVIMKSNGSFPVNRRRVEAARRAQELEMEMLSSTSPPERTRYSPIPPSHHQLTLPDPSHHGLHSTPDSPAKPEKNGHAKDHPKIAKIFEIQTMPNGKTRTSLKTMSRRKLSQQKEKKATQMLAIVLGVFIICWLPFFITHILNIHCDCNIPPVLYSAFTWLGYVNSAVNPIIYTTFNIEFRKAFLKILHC

With `CCCCCCCCCCCCCCCC(=O)O[C@@H]1[C@H](OC(=O)CCCCC)[C@H](OC[C@@H](O)[C@@H](O)CO)O[C@H](COC(C)=O)[C@H]1OC(C)=O` [Ustilipide A] the IC50 (Dopamine D3 receptor) was 7.09 µM, the IC50 [1] was 42.6 µM and the solubility [2] was “Colorless oil which is soluble in alcohols and other”. For the same compound, the stability ([2]; alkaline solution) was “medium but unstable in alkaline solution”, the stability [2, 3] was “organic solvents. Stable in neutral and weakly acidic” and the “hemolysis (percentage of ruptured cells)” value (human erythrocytes; 8 μg/ml) was 0.0%. For the same compound, the “hemolysis (percentage of ruptured cells)” value (human erythrocytes; 16 μg/ml) was 0.0%, the “hemolysis (percentage of ruptured cells)” value (human erythrocytes; 32 μg/ml) was 0.0% and the “hemolysis (percentage of ruptured cells)” value (human erythrocytes; 62.5 μg/ml) was 0.0%. The “hemolysis (percentage of ruptured cells)” value (human erythrocytes; 125 μg/ml) was 0.1%.
With `CCCCCCCCCCCCCCCC(=O)O[C@@H]1[C@H](OC(=O)CCC)[C@H](OC[C@@H](O)[C@@H](O)CO)O[C@H](COC(C)=O)[C@H]1OC(C)=O` [Ustilipide B] the IC50 (Dopamine D3 receptor) was 10.3 µM, the IC50 [1] was 23.6 µM and the solubility [2] was “Colorless oil which is soluble in alcohols and other”. The stability ([2]; alkaline solution) was “medium but unstable in alkaline solution”, the stability [2, 3] was “organic solvents. Stable in neutral and weakly acidic” and the “hemolysis (percentage of ruptured cells)” value (human erythrocytes; 8 μg/ml) was 0.0%. The “hemolysis (percentage of ruptured cells)” value (human erythrocytes; 16 μg/ml) was 0.0%, the “hemolysis (percentage of ruptured cells)” value (human erythrocytes; 32 μg/ml) was 0.0% and the “hemolysis (percentage of ruptured cells)” value (human erythrocytes; 62.5 μg/ml) was 0.0%. The “hemolysis (percentage of ruptured cells)” value (human erythrocytes; 125 μg/ml) was 0.4%.
With `CCCCCCCCCCCCCCCC(=O)O[C@@H]1[C@H](OC(=O)C(C)C)[C@H](OC[C@@H](O)[C@@H](O)CO)O[C@H](CO)[C@H]1OC(C)=O` [Ustilipide C] the IC50 (Dopamine D3 receptor) was 18.9 µM, the IC50 [1] was 14.2 µM and the solubility [2] was “Colorless oil which is soluble in alcohols and other”. For the same compound, the stability ([2]; alkaline solution) was “medium but unstable in alkaline solution”, the stability [2, 3] was “organic solvents. Stable in neutral and weakly acidic” and the “hemolysis (percentage of ruptured cells)” value (human erythrocytes; 8 μg/ml) was 0.0%. The “hemolysis (percentage of ruptured cells)” value (human erythrocytes; 16 μg/ml) was 0.4%, the “hemolysis (percentage of ruptured cells)” value (human erythrocytes; 32 μg/ml) was 0.4% and the “hemolysis (percentage of ruptured cells)” value (human erythrocytes; 62.5 μg/ml) was 0.5%. The “hemolysis (percentage of ruptured cells)” value (human erythrocytes; 125 μg/ml) was 0.8%.
